{
  "source": "patent US20250161294A1",
  "about": "“COMPOSITIONS AND METHODS FOR TREATMENT OF OCULAR DISORDERS” (Bausch + Lomb Ireland Limited, priority 2023, published 2025)",
  "key": {"[1]": {"assay": "Solubility of lifitegrast free acid in F6H8", "assay_type": "physicochemical", "conditions": "lifitegrast free acid added to F6H8 at 0.25% to 10% (w/w); forms a suspension", "text": "The lifitegrast is in soluble in F6H8 and forms a suspension. When left standing the lifitegrast settles to form a sediment."}, "[2]": {"tested_on": "viable bacteria; yeasts and molds", "assay": "Antimicrobial effectiveness acceptance criteria, Ph. Eur. 5.1.3 (overall)", "assay_type": "cell-based", "conditions": "bacteria: >=2 log reduction at 6 hours, >=3 log at 24 hours, no recovery at 28 days; yeasts and molds: >=2 log at 7 days, no increase at 28 days; no extrinsic preservative", "experimental": "(§1) The antimicrobial properties of F6H8 were evaluated according to the Ph. Eur. 5.1.3 method."}, "P. aeruginosa": {"tested_on": "P. aeruginosa", "assay": "Antimicrobial properties of F6H8, Ph. Eur. 5.1.3 method", "assay_type": "cell-based", "conditions": "for Count: inoculum 8 × 10^5", "experimental": "as §1"}, "E. coli": {"tested_on": "E. coli", "assay": "Antimicrobial properties of F6H8, Ph. Eur. 5.1.3 method", "assay_type": "cell-based", "conditions": "for Count: inoculum 2 × 10^5", "experimental": "as §1"}, "C. albicans": {"tested_on": "C. albicans", "assay": "Antimicrobial properties of F6H8, Ph. Eur. 5.1.3 method", "assay_type": "cell-based", "conditions": "for Count: inoculum 9 × 10^5", "experimental": "as §1"}, "A. brasiliensis": {"tested_on": "A. brasiliensis", "assay": "Antimicrobial properties of F6H8, Ph. Eur. 5.1.3 method", "assay_type": "cell-based", "conditions": "for Count: inoculum 7 × 10^5", "experimental": "as §1"}, "S. aureus": {"tested_on": "S. aureus", "assay": "Antimicrobial properties of F6H8, Ph. Eur. 5.1.3 method", "assay_type": "cell-based", "conditions": "for Count: inoculum 2 × 10^5"}},
  "data": [
    {"smiles": "CS(=O)(=O)c1cccc(C[C@H](NC(=O)c2c(Cl)cc3c(c2Cl)CCN(C(=O)c2ccc4ccoc4c2)C3)C(=O)O)c1", "note": "[lifitegrast]", "values": [
      {"measurement": "Solubility in F6H8", "setting": "[1]", "value": "in soluble"}
    ]},
    {"smiles": "CCCCCCCCC(F)(F)C(F)(F)C(F)(F)C(F)(F)C(F)(F)C(F)(F)F", "note": "[F6H8, 1-perfluorohexyloctane]", "values": [
      {"measurement": "Acceptance criteria of the antimicrobial effectiveness assay", "setting": "[2]", "value": "meets the acceptance criteria"},
      {"measurement": "Log reduction", "setting": "P. aeruginosa; 0 hour", "value": 1.2},
      {"measurement": "Count", "setting": "P. aeruginosa; 0 hour", "value": "5 × 10^4"},
      {"measurement": "Log reduction", "setting": "P. aeruginosa; 6 hours", "value": 3.3},
      {"measurement": "Count", "setting": "P. aeruginosa; 6 hours", "value": "4 × 10^2"},
      {"measurement": "Log reduction", "setting": "P. aeruginosa; 24 hours", "value": 5.0},
      {"measurement": "Count", "setting": "P. aeruginosa; 24 hours", "value": 8},
      {"measurement": "Log reduction", "setting": "P. aeruginosa; 28 days", "value": 5.9},
      {"measurement": "Count", "setting": "P. aeruginosa; 28 days", "value": 0},
      {"measurement": "Log reduction", "setting": "E. coli; 0 hour", "value": 1.0},
      {"measurement": "Count", "setting": "E. coli; 0 hour", "value": "2 × 10^4"},
      {"measurement": "Log reduction", "setting": "E. coli; 6 hours", "value": 5.3},
      {"measurement": "Count", "setting": "E. coli; 6 hours", "value": 0},
      {"measurement": "Log reduction", "setting": "E. coli; 24 hours", "value": 5.3},
      {"measurement": "Count", "setting": "E. coli; 24 hours", "value": 0},
      {"measurement": "Log reduction", "setting": "E. coli; 28 days", "value": 5.3},
      {"measurement": "Count", "setting": "E. coli; 28 days", "value": 0},
      {"measurement": "Log reduction", "setting": "C. albicans; 0 hour", "value": 2.3},
      {"measurement": "Count", "setting": "C. albicans; 0 hour", "value": "5 × 10^3"},
      {"measurement": "Log reduction", "setting": "C. albicans; 7 days", "value": 6.0},
      {"measurement": "Count", "setting": "C. albicans; 7 days", "value": 0},
      {"measurement": "Log reduction", "setting": "C. albicans; 28 days", "value": 6.0},
      {"measurement": "Count", "setting": "C. albicans; 28 days", "value": 0},
      {"measurement": "Log reduction", "setting": "A. brasiliensis; 0 hour", "value": 0.9},
      {"measurement": "Count", "setting": "A. brasiliensis; 0 hour", "value": "8 × 10^4"},
      {"measurement": "Log reduction", "setting": "A. brasiliensis; 7 days", "value": 2.8},
      {"measurement": "Count", "setting": "A. brasiliensis; 7 days", "value": "1 × 10^3"},
      {"measurement": "Log reduction", "setting": "A. brasiliensis; 28 days", "value": 2.5},
      {"measurement": "Count", "setting": "A. brasiliensis; 28 days", "value": "2 × 10^3"},
      {"measurement": "Log reduction", "setting": "S. aureus; 0 hour", "value": 4.1},
      {"measurement": "Log reduction", "setting": "S. aureus; 6 hours", "value": 5.3},
      {"measurement": "Count", "setting": "S. aureus; 6 hours", "value": 0},
      {"measurement": "Log reduction", "setting": "S. aureus; 24 hours", "value": 5.3},
      {"measurement": "Count", "setting": "S. aureus; 24 hours", "value": 0},
      {"measurement": "Log reduction", "setting": "S. aureus; 28 days", "value": 5.3},
      {"measurement": "Count", "setting": "S. aureus; 28 days", "value": 0}
    ]}
  ]
}
